Source: patent US12404239B2, “Modulators of BCL6 as ligand directed degraders” (Celgene Corporation, priority 2022, dated 2025)

Target: T1, BCL6 (Homo sapiens, UniProt P41182)
T1 construct: HiBiT-tag knocked into endogenous BCL6 locus using CRISPR; endogenous in cells; host or cells: DHL-4_BCL6_HiBiT cells (CRISPR knock-in)
Test: BCL6_HiBiT degradation assay (2 h)
Type: cell-based
Settings: DHL-4_BCL6_HiBiT cells, read-out: YCon (% remaining maximal effect)
How it was run: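 DHL-4 cells carrying CRISPR HiBiT knock-in at endogenous BCL6, treated 2 h at 37 °C with 10-point 3-fold dilutions from 1-10 μM. BCL6 level read by Nano-Glo HiBiT lytic luminescence normalized to DMSO; four-parameter fit gives degradation EC50 and Yconstant (% remaining at maximal effect).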

| Compound | Percent BCL6 remaining at maximal degradation (Ycon) [%] |
| --- | --- |
| CN1C(=O)Cc2cc(Nc3nc(N4CC[C@H](Nc5ccc6c(C7CCC(=O)NC7=O)nn(C)c6c5)[C@H](C(F)(F)F)C4)ncc3Cl)ccc21 (relative stereo) [Example 147, rel-3-(6-(((3R,4S)-1-(5-chloro-4-((1-methyl-2-oxoindolin-5-yl)amino)pyrimidin-2-yl)-3-(trifluoromethyl)piperidin-4-yl)amino)-1-methyl-1H-indazol-3-yl)piperidine-2,6-dione] | > 60 |
| CN1C(=O)Cc2cc(Nc3nc(N4CCC(Nc5ccc6c(C7CCC(=O)NC7=O)nn(C)c6c5)CC45CCC5)ncc3Cl)ccc21 (stereo not shown) [Example 1, 3-(6-((5-(5-chloro-4-((1-methyl-2-oxoindolin-5-yl)amino)pyrimidin-2-yl)-5-azaspiro[3.5]nonan-8-yl)amino)-1-methyl-1H-indazol-3-yl)piperidine-2,6-dione] | 20 to 60 |
| C[C@@H]1CN(c2ccc3c(C4CCC(=O)NC4=O)nn(C)c3c2)C[C@H](C)N1c1ncc(Cl)c(Nc2ccc3c(c2)CC(=O)N3C)n1 (stereo partly drawn) [Example 30, 3-(6-((3R,5S)-4-(5-chloro-4-((1-methyl-2-oxoindolin-5-yl)amino)pyrimidin-2-yl)-3,5-dimethylpiperazin-1-yl)-1-methyl-1H-indazol-3-yl)piperidine-2,6-dione] | > 60 |
| CCN1C(=O)Cc2cc(Nc3nc(N4CC[C@@H](Nc5ccc6c(C7CCC(=O)NC7=O)nn(C)c6c5)[C@H](C)C4)ncc3Cl)ccc21 (stereo partly drawn) [Example 69, 3-(6-(((3R,4R)-1-(5-chloro-4-((1-ethyl-2-oxoindolin-5-yl)amino)pyrimidin-2-yl)-3-methylpiperidin-4-yl)amino)-1-methyl-1H-indazol-3-yl)piperidine-2,6-dione] | < 20 |
| C[C@@H]1CN(c2nc(F)c(Cl)c(Nc3ccc4c(c3)CC(=O)N4C)n2)CC[C@H]1Nc1ccc2c(C3CCC(=O)NC3=O)nn(C)c2c1 (stereo partly drawn) [Example 123, 3-(6-(((3R,4R)-1-(5-chloro-4-fluoro-6-((1-methyl-2-oxoindolin-5-yl)amino)pyrimidin-2-yl)-3-methylpiperidin-4-yl)amino)-1-methyl-1H-indazol-3-yl)piperidine-2,6-dione] | < 20 |
| C[C@@H]1C[C@H](Nc2ccc3c(C4CCC(=O)NC4=O)nn(C)c3c2)CCN1c1ncc(Cl)c(Nc2ccc3c(c2)CC(=O)N3C)n1 (stereo partly drawn) [Example 22, 3-(6-(((2R,4R)-1-(5-chloro-4-((1-methyl-2-oxoindolin-5-yl)amino)pyrimidin-2-yl)-2-methylpiperidin-4-yl)amino)-1-methyl-1H-indazol-3-yl)piperidine-2,6-dione] | > 60 |
| C[C@@H]1CN(c2ncc(Cl)c(Nc3ccc4c(c3)CC(=O)N4CCN3CCOCC3)n2)CC[C@H]1Nc1ccc2c([C@@H]3CCC(=O)NC3=O)nn(C)c2c1 (single isomer, unassigned) [Example 103] | < 20 |
| C[C@@H]1CN(c2ccc3c(C4CCC(=O)NC4=O)nn(C)c3c2)C[C@@H](C)N1c1ncc(Cl)c(Nc2ccc3c(c2)CC(=O)N3C)n1 (stereo partly drawn) [Example 28, 3-(6-((3R,5R)-4-(5-chloro-4-((1-methyl-2-oxoindolin-5-yl)amino)pyrimidin-2-yl)-3,5-dimethylpiperazin-1-yl)-1-methyl-1H-indazol-3-yl)piperidine-2,6-dione] | > 60 |
| C[C@H]1C[C@H](Nc2ccc3c([C@H]4CCC(=O)NC4=O)nn(C)c3c2)CCN1c1ncc(Cl)c(Nc2ccc3c(c2)CC(=O)N3C)n1 (single isomer, unassigned) [Example 82] | < 20 |
| C[C@@H]1C(=O)N(c2ccc3c(C4CCC(=O)NC4=O)nn(C)c3c2)CC[C@H]1N(C)c1ncc(Cl)c(Nc2ccc3c(c2)CC(=O)N3C)n1 (single isomer, unassigned) [Example 131] | < 20 |
| C[C@@H]1CN(c2ncc(Cl)c(Nc3ccc4c(c3)CC(=O)N4CCC(C)(C)F)n2)CC[C@H]1Nc1ccc2c([C@@H]3CCC(=O)NC3=O)nn(C)c2c1 (single isomer, unassigned) [Example 109] | < 20 |
| C[C@@H]1CN(c2ncc(Cl)c(Nc3ccc4c(c3)CC(=O)N4C)n2)CC[C@H]1Nc1ccc2c(-n3cc(F)c(=O)[nH]c3=O)nn(C)c2c1 [Example 140, 1-(6-(((3R,4R)-1-(5-chloro-4-((1-methyl-2-oxoindolin-5-yl)amino)pyrimidin-2-yl)-3-methylpiperidin-4-yl)amino)-1-methyl-1H-indazol-3-yl)-5-fluoropyrimidine-2,4(1H,3H)-dione] | < 20 |
| C[C@@H]1CN(c2ncc(Cl)c(Nc3ccc4c(c3)N(C)C(=O)C4)n2)CC[C@H]1Nc1ccc2c(C3CCC(=O)NC3=O)nn(C)c2c1 (stereo partly drawn) [Example 61, 3-(6-(((3R,4R)-1-(5-chloro-4-((1-methyl-2-oxoindolin-6-yl)amino)pyrimidin-2-yl)-3-methylpiperidin-4-yl)amino)-1-methyl-1H-indazol-3-yl)piperidine-2,6-dione] | < 20 |
| C[C@@H]1CN(c2ncc(Cl)c(Nc3ccc4c(c3)CC(=O)N4C)n2)C[C@@H](C)N1c1ccc2c([C@@H]3CCC(=O)NC3=O)nn(C)c2c1 (single isomer, unassigned) [Example 80] | > 60 |
| CN1C(=O)Cc2cc(Nc3nc(N4CCN(Cc5ccc6c(C7CCC(=O)NC7=O)nn(C)c6c5)CC4)ncc3Cl)ccc21 (stereo not shown) [Example 17, 3-(6-((4-(5-chloro-4-((1-methyl-2-oxoindolin-5-yl)amino)pyrimidin-2-yl)piperazin-1-yl)methyl)-1-methyl-1H-indazol-3-yl)piperidine-2,6-dione] | > 60 |
| C[C@@H]1CN(c2ncc(Cl)c(Nc3ccc4c(c3)CC(=O)N4C)n2)C[C@H](C)N1c1ccc2c(C3CCC(=O)NC3=O)nn(C)c2c1 (stereo partly drawn) [Example 26, 3-(6-((2S,6R)-4-(5-chloro-4-((1-methyl-2-oxoindolin-5-yl)amino)pyrimidin-2-yl)-2,6-dimethylpiperazin-1-yl)-1-methyl-1H-indazol-3-yl)piperidine-2,6-dione] | > 60 |
| C[C@@H]1CN(c2ncc(Cl)c(Nc3ccc4c(c3)CC(=O)N4C)n2)CC[C@H]1Nc1ccc2c(C3CCC(=O)NC3=O)nn(C)c2n1 (stereo partly drawn) [Example 62, 3-(6-(((3R,4R)-1-(5-chloro-4-((1-methyl-2-oxoindolin-5-yl)amino)pyrimidin-2-yl)-3-methylpiperidin-4-yl)amino)-1-methyl-1H-pyrazolo[3,4-b]pyridin-3-yl)piperidine-2,6-dione] | < 20 |
| CN1C(=O)Cc2cc(Nc3nc(N4CC[C@@H](Nc5ccc6c(C7CCC(=O)NC7=O)nn(C)c6c5)C(F)(F)C4)ncc3Cl)ccc21 (stereo partly drawn) [Example 66, 3-(6-(((R)-1-(5-chloro-4-((1-methyl-2-oxoindolin-5-yl)amino)pyrimidin-2-yl)-3,3-difluoropiperidin-4-yl)amino)-1-methyl-1H-indazol-3-yl)piperidine-2,6-dione] | > 60 |
| CN1C(=O)Cc2cc(Nc3nc(N4CC[C@H](Nc5ccc6c(C7CCC(=O)NC7=O)nn(C)c6c5)[C@H](F)C4)ncc3Cl)ccc21 (stereo partly drawn) [Example 43, 3-(6-(((3R,4S)-1-(5-Chloro-4-((1-methyl-2-oxoindolin-5-yl)amino)pyrimidin-2-yl)-3-fluoropiperidin-4-yl)amino)-1-methyl-1H-indazol-3-yl)piperidine-2,6-dione] | > 60 |
| CN1C(=O)Cc2cc(Nc3nc(N4CC[C@@H](Nc5ccc6c(C7CCC(=O)NC7=O)nn(C)c6n5)[C@H](O)C4)ncc3Cl)ccc21 (stereo partly drawn) [Example 55, 3-(6-(((3R,4R)-1-(5-chloro-4-((1-methyl-2-oxoindolin-5-yl)amino)pyrimidin-2-yl)-3-hydroxypiperidin-4-yl)amino)-1-methyl-1H-pyrazolo[3,4-b]pyridin-3-yl)piperidine-2,6-dione] | 20 to 60 |
| C[C@@H]1CN(c2ncc(Cl)c(Nc3ccc4c(c3)CC(=O)N4CC(C)(F)F)n2)CC[C@H]1Nc1ccc2c([C@@H]3CCC(=O)NC3=O)nn(C)c2c1 (single isomer, unassigned) [Example 112] | < 20 |
| C[C@@H]1CN(c2ncc(Cl)c(Nc3ccc4c(c3)CC(=O)N4C)n2)CC[C@H]1Nc1ccc2c([C@H]3CCC(=O)NC3=O)nn(C)c2c1 (single isomer, unassigned) [Example 71] | < 20 |
| C[C@@H]1CN(c2ncc(Cl)c(Nc3ccc4c(c3F)CC(=O)N4C)n2)CC[C@H]1Nc1ccc2c(C3CCC(=O)NC3=O)nn(C)c2c1 (stereo partly drawn) [Example 98, 3-(6-(((3R,4R)-1-(5-chloro-4-((4-fluoro-1-methyl-2-oxoindolin-5-yl)amino)pyrimidin-2-yl)-3-methylpiperidin-4-yl)amino)-1-methyl-1H-indazol-3-yl)piperidine-2,6-dione] | < 20 |
| CNCCN1C(=O)Cc2cc(Nc3nc(N4CC[C@@H](Nc5ccc6c([C@@H]7CCC(=O)NC7=O)nn(C)c6c5)[C@H](C)C4)ncc3Cl)ccc21 (single isomer, unassigned) [Example 106] | < 20 |
| CC1CN(c2ccc3c(C4CCC(=O)NC4=O)nn(C)c3c2)C(=O)CN1c1ncc(Cl)c(Nc2ccc3c(c2)CC(=O)N3C)n1 (stereo not shown) [Example 39, 3-(6-(4-(5-chloro-4-((1-methyl-2-oxoindolin-5-yl)amino)pyrimidin-2-yl)-5-methyl-2-oxopiperazin-1-yl)-1-methyl-1H-indazol-3-yl)piperidine-2,6-dione] | > 60 |
